Experimental findings from ChEMBL document CHEMBL1149348, “Tubulin polymerization inhibitors with a fluorinated phthalimide skeleton derived from thalidomide” (Bioorg Med Chem Lett, 2006) are described below.

The source made the active and inactive calls. The rule behind the calls is not given here.

Assay [1] has as its target T1, Tubulin (Sus scrofa) (UniProt P02554+P02550). Description: Inhibition of tubulin polymerization in porcine brain at 20 uM.
Assay [2] concerns the target Tubulin (Sus scrofa, UniProt P02554+P02550). Put plainly: Inhibition of tubulin polymerization in porcine brain.
For assay [3], the target named is T1, Tubulin (Sus scrofa). Description: Inhibition of tubulin depolymerization in porcine brain at 10 uM.

T1 sequence (P02550 whole entry, looked up): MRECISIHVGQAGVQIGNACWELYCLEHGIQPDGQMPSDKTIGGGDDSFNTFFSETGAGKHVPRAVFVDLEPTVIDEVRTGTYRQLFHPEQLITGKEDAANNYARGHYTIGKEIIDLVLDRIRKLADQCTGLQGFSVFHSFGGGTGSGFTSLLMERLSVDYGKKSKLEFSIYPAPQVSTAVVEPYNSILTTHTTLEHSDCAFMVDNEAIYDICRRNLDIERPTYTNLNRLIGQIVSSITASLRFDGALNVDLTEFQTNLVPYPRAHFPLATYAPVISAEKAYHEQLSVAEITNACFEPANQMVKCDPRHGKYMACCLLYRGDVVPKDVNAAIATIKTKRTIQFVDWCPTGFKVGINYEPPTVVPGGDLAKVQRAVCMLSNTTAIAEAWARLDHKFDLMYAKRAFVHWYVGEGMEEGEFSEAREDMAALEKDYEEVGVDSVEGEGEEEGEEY
T1 sequence (P02554 whole entry, looked up): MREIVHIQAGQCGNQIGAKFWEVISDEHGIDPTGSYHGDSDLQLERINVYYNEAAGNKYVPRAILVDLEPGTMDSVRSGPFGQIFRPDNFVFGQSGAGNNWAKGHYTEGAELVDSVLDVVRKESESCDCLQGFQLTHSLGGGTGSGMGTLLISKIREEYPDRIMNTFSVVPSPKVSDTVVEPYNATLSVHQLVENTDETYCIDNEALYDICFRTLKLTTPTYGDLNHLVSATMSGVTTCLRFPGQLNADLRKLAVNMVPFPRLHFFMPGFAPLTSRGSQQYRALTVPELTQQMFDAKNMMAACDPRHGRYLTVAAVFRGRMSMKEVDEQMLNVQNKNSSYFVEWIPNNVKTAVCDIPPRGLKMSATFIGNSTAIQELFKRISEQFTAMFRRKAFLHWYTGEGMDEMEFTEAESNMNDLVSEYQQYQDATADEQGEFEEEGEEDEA

In assay [1], `O=C1c2c(Cl)c(Cl)c(Cl)c(Cl)c2C(=O)N1c1ccccc1` came in with an inhibition of 6%.

On to `CC(C)c1cccc(C(C)C)c1N1C(=O)c2c(F)c(F)c(F)c(F)c2C1=O`, for which, in assay [2], the IC50 stood at 16 µM. The same compound displayed an inhibition in assay [1] of 71%.

As for `CC(C)c1cccc(C(C)C)c1N1C(=O)c2ccc(O)cc2C1=O`, in assay [2], the IC50 amounted to 6.9 µM.

With `CC(C)c1ccc([N+](=O)[O-])c(C(C)C)c1N1C(=O)c2c(F)c(F)c(F)c(F)c2C1=O`, the inhibition in assay [1] came out at 10%.

For `CCc1cccc(CC)c1N1C(=O)c2c(F)c(F)c(F)c(F)c2C1=O`, the inhibition in assay [1] amounted to 18%.

As for `CC(C)c1ccccc1N1C(=O)c2c(F)c(F)c(F)c(F)c2C1=O`, the inhibition in assay [1] amounted to 10%.

The compound `Cc1cccc(C)c1N1C(=O)c2c(Cl)c(Cl)c(Cl)c(Cl)c2C1=O` displayed an inhibition in assay [1] of 0%.

In assay [2], `CC(C)c1cccc(C(C)C)c1N1C(=O)c2cccc(F)c2C1=O` displayed an IC50 of 17 µM. Besides, the inhibition in assay [1] is 73%.

On to `CC(C)c1cccc(C(C)C)c1N1C(=O)c2cc(F)c(F)cc2C1=O`, for which the inhibition in assay [1] turned out to be 8%.

`CC(C)c1cc(Br)cc(C(C)C)c1N1C(=O)c2c(F)c(F)c(F)c(F)c2C1=O`: in assay [1], the inhibition turned out to be 11%.

`Cc1cccc(C)c1N1C(=O)c2c(F)c(F)c(F)c(F)c2C1=O`: in assay [1], the inhibition is 10%.

In the case of `CCCc1cccc(CCC)c1N1C(=O)c2c(Cl)c(Cl)c(Cl)c(Cl)c2C1=O`, the inhibition in assay [1] amounted to 0%.

In turn, `CC(C)c1cccc(C(C)C)c1N1C(=O)c2ccc(F)cc2C1=O` showed an inhibition in assay [1] of 9%.

In turn, `CC(C)c1cccc(C(C)C)c1N1C(=O)c2c(F)ccc(F)c2C1=O` came in with an IC50 in assay [2] of 7.8 µM. The inhibition in assay [1] came to 78%. In assay [3], the outcome was inactive.

Turning to `CC(C)c1cccc(C(C)C)c1N1C(=O)c2ccccc2C1=O`, the inhibition in assay [1] was 3%.

In assay [1], `CO[C@@H](/C(C)=C/C=C/C(C)=C/c1coc(C)n1)[C@@H](C)[C@@H]1C[C@H](O)[C@@]2(C)O[C@@H]2/C=C/[C@@H](C)[C@H]2C[C@H](CC(=O)O2)C[C@@H]2O[C@H]2C(=O)O1` yielded an inhibition of 81%.

Compound `O=C1c2c(F)c(F)c(F)c(F)c2C(=O)N1c1ccccc1` gave an inhibition in assay [1] of 7%.

The term inhibition denotes the share of the control response that was lost under treatment. For orientation: IC50 means the concentration at which inhibition is half-maximal. High values mean lower potency, low ones higher potency.
